Experimental findings from patent US7183322B2, “Remedy for hypertension” (Taisho Pharmaceutical Co., Ltd., priority 2002, dated 2007) are described below.

pIC50: −log10 of the molar value.

In assay [1] the test system is Brain microsomal Na+/Ca2+ exchanger. Nature of the assay: Brain microsomal Na+/Ca2+ exchanger (Na-dependent 45Ca uptake). The class given is biochemical. As to conditions: rat brain microsomes; read-out: Inhibitory activity against Na+/Ca2+ exchange (Na-dependent 45Ca uptake), IC50 value, Brain. The procedure: Method of Measuring for Brain Microsomal Na^+/Ca^2+ Exchanger
Brain microsomes (1.5 mg/ml) obtained from 8-week-old rats were pre-treated with 160 mM NaCl-containing buffer to cause Na loading into membrane vesicles. This suspension was diluted 50-fold with 20 μM ^45CaCl2-containing buffer to induce ^45Ca uptake, followed by dilution with the buffer (0° C.) to stop the reaction. The membrane vesicles were immediately collected on a nitrocellulose filter. Subsequently, ^45Ca trapped inside the membrane vesicles was determined by liquid scintillation counting. The above assay for Na^+/Ca^2+ exchange activity in brain microsomes was performed according to the procedures described in J. Biol. Chem., vol. 257, p. 5111 (1982).

Assay [2] deals with T1, Canine cardiac sarcolemmal vesicle Na+/Ca2+ exchanger (Canis lupus familiaris, UniProt P23685).
T1 construct: Canine cardiac sarcolemmal vesicles (0.5 mg/ml) were prepared by centrifugal fractionation; from tissue; host or cells: canine cardiac sarcolemmal vesicles
Nature of the assay: Canine cardiac sarcolemmal vesicle Na+/Ca2+ exchanger (Na-dependent 45Ca uptake). The class given is biochemical. As to conditions: canine cardiac sarcolemmal vesicles; read-out: Inhibitory activity against Na+/Ca2+ exchange (Na-dependent 45Ca uptake), IC50 value, Cardiac sarcolemma. The procedure:
Method of Measuring for Canine Cardiac Sarcolemmal Vesicle Na^+/Ca^2+ Exchanger
Canine cardiac sarcolemmal vesicles (0.5 mg/ml) were prepared by centrifugal fractionation as described in Methods enzymology, vol. 157, p. 85 (1988) and suspended in Solution A (20 mM MOPS-Tris (pH 7.4), 160 mM NaCl or KCl), followed by incubation at room temperature for about one hour to cause Na or K loading into the vesicles. This suspension was diluted 50-fold with 20 μM ^45CaCl2-containing buffer to induce ^45Ca uptake, followed by dilution with the buffer (0° C.) to stop the reaction. The membrane vesicles were immediately collected on a nitrocellulose filter. Subsequently, ^45Ca trapped inside the membrane vesicles was determined by liquid scintillation counting. The Na^+/Ca^2+ exchange activity was evaluated by subtracting the value obtained for K loading from the value obtained for Na loading. The above assay for Na^+/Ca^2+ exchange activity in canine cardiac sarcolemmal vesicles was performed according to the procedures described in J. Biol. Chem., vol. 257, p. 5111 (1982).

Assay [3] addresses renal cortex-derived Na+/Ca2+ exchanger (NCX1) (Rattus norvegicus, UniProt Q01728). Nature of the assay: Rat renal cortex-derived BLMVs Na+/Ca2+ exchange activity (Na-dependent 45Ca uptake). The class given is biochemical. As to conditions: read-out: Inhibitory activity against Na+/Ca2+ exchange (Na-dependent 45Ca uptake), IC50 value, Renal cortex. The procedure: BLMVs were prepared from rat renal cortex and assayed for Na^+/Ca^2+ exchange activity according to the procedures described in Am. J. Physiol., vol. 266, p. F785 (1994). After being excised from rats, the kidneys were placed in ice-cold sucrose buffer ([…], 0.1 mM PMSF, 10 mM Tris-HCl (pH 7.6)) and decapsulated. The isolated cortex was then finely minced in the sucrose buffer and homogenized sequentially with a Dounce-type homogenizer and a Polytron-type homogenizer, followed by centrifugation at 2500 g for 15 minutes to collect the supernatant. Centrifugation was repeated at 24000 g for 20 minutes to collect the white fluffy portion of the pellet. After further addition of the sucrose buffer, the collected fraction was homogenized with a Dounce-type homogenizer, supplemented with Percoll and then centrifuged at 30000 g for 35 minutes to collect the middle layer. After addition of buffer (100 mM KCl, 100 mM mannitol, 5 mM HEPES-Tris (pH 7.4)), centrifugation was carried out at 34000 g for 30 minutes to collect the loose white pellet (BLMVs). […] Subsequently, the filter was washed twice with 2 ml stop solution and then the amount of ^45Ca trapped inside the BLMVs was determined by using liquid scintillation method.

Assay [4] concerns Dahl salt-sensitive hypertension rats. Nature of the assay: Dahl salt-sensitive hypertension rat model, systolic blood pressure. The class given is in vivo. Conditions: for % change in blood pressure: one hour after administration, systolic. From the text:
(Creation of Dahl Salt-sensitive Hypertension Rat Model)
Dahl salt-sensitive hypertension rats (7 weeks old) were used in the experiment. They were fed a 4% NaCl high-salt chow (0.6% for normal chow), but were allowed to drink water without any restriction. At two weeks after high-salt loading, the animals confirmed to develop hypertension were divided into the following 4 groups for use in the experiment.
(Experimental Animal Groups)
After loading the high-salt chow for two weeks as described above, an acute experiment was performed. On the day of the experiment, the systolic blood pressure (before administration) was measured for each animal under non-anesthesia conditions using a noninvasive sphygmomanometer. The animals were then administered orally with the solvent or SEA0400(3, 10, or 30 mg/kg) and monitored over time for their systolic blood pressure.

In the case of `N=C(N)SCCc1ccc(OCc2ccc([N+](=O)[O-])cc2)cc1` [K-BR7943, 2-[2-[4-[nitrobenzyloxy]phenyl]ethyl]isothio-ureamethanesulfonate], the values for the pIC50 in assay [1], in assay [2] and in assay [3] were 4.96, 5.15 and 5.17, respectively.

On to `CCOc1ccc(Oc2ccc(OCc3cc(F)ccc3F)cc2)c(N)c1` [SEA0400, 2-[4-[(2,5-difluorophenyl)methoxy]phenoxy]-5-ethoxyaniline], for which the “% change in blood pressure” value in assay [4] (3 mg/kg oral) was −9.5±1.8%; in assay [4] (10 mg/kg oral) it was −12.0±0.9%; in assay [4] (30 mg/kg oral) it was −12.7±3.4%. Besides, the “Reduction in blood pressure compared with the solvent group” value in assay [4] (10 mg/kg and 30 mg/kg groups, oral) is given as “significant reduction in blood pressure”. Also, the pIC50 in assay [1] is 6.70.
